Values after ≈ are worked out from the molar mass of the structure shown.
system: Escherichia coli; test: Antibacterial activity against Escherichia coli MG1655 measured every 15 mins for 12 hrs; format: functional; conditions: K-12 substr. MG1655

Compound | MIC
CC[C@H]1OC(=O)[C@H](C)[C@@H](O[C@H]2C[C@@](C)(OC)[C@@H](O)[C@H](C)O2)[C@H](C)[C@@H](O[C@@H]2O[C@H](C)C[C@H](N(C)C)[C@H]2O)[C@](C)(OC)C[C@@H](C)C(=O)[C@H](C)[C@@H](O)[C@]1(C)O [CLARITHROMYCIN] | 22 µg/mL (≈ 29.4 µM)
GENTAMICIN | 3 µg/mL
NC[C@H]1O[C@H](O[C@H]2[C@H](O)[C@@H](O[C@H]3O[C@H](CO)[C@@H](O)[C@H](N)[C@H]3O)[C@H](N)C[C@@H]2N)[C@H](N)C[C@@H]1O [TOBRAMYCIN] | 2.5 µg/mL (≈ 5.35 µM)
NCC[C@H](O)C(=O)N[C@@H]1C[C@H](N)[C@@H](O[C@H]2O[C@H](CN)[C@@H](O)[C@H](O)[C@H]2O)[C@H](O)[C@H]1O[C@H]1O[C@H](CO)[C@@H](O)[C@H](N)[C@H]1O [AMIKACIN] | 4 µg/mL (≈ 6.83 µM)
CCn1cc(C(=O)O)c(=O)c2ccc(C)nc21 [NALIDIXIC ACID] | 5 µg/mL (≈ 21.5 µM)
O=C(N[C@H](CO)[C@H](O)c1ccc([N+](=O)[O-])cc1)C(Cl)Cl [CHLORAMPHENICOL] | 5 µg/mL (≈ 15.5 µM)
CO[C@H]1/C=C/O[C@@]2(C)Oc3c(C)c(O)c4c(O)c(c(/C=N/N5CCN(C)CC5)c(O)c4c3C2=O)NC(=O)/C(C)=C\C=C\[C@H](C)[C@H](O)[C@@H](C)[C@@H](O)[C@@H](C)[C@H](OC(C)=O)[C@@H]1C [RIFAMPIN] | 2.5 µg/mL (≈ 3.04 µM)
CN[C@@H]1[C@H](O)[C@H](NC)[C@H]2O[C@@]3(O)C(=O)C[C@@H](C)O[C@H]3O[C@@H]2[C@H]1O [SPECTINOMYCIN] | 5.6 µg/mL (≈ 16.8 µM)
CC[C@H]1OC(=O)[C@H](C)[C@@H](O[C@H]2C[C@@](C)(OC)[C@@H](O)[C@H](C)O2)[C@H](C)[C@@H](O[C@@H]2O[C@H](C)C[C@H](N(C)C)[C@H]2O)[C@](C)(O)C[C@@H](C)C(=O)[C@H](C)[C@@H](O)[C@]1(C)O [ERYTHROMYCIN] | 13 µg/mL (≈ 17.7 µM)
O=C1CN(/N=C/c2ccc([N+](=O)[O-])o2)C(=O)N1 [NITROFURANTOIN] | 12 µg/mL (≈ 50.4 µM)
CO[C@@]1(NC(=O)Cc2cccs2)C(=O)N2C(C(=O)O)=C(COC(N)=O)CS[C@@H]21 [CEFOXITIN] | 4.5 µg/mL (≈ 10.5 µM)
O=c1[nH]cc(F)c(=O)[nH]1 [FLUOROURACIL] | 25 µg/mL (≈ 192 µM)
CC[C@H]1OC(=O)[C@H](C)[C@@H](O[C@H]2C[C@@](C)(OC)[C@@H](O)[C@H](C)O2)[C@H](C)[C@@H](O[C@@H]2O[C@H](C)C[C@H](N(C)C)[C@H]2O)[C@](C)(O)C[C@@H](C)/C(=N\OCOCCOC)[C@H](C)[C@@H](O)[C@]1(C)O [ROXITHROMYCIN] | 62 µg/mL (≈ 74.1 µM)
CN[C@H](CC(C)C)C(=O)N[C@H]1C(=O)N[C@@H](CC(N)=O)C(=O)N[C@H]2C(=O)N[C@H]3C(=O)N[C@H](C(=O)N[C@H](C(=O)O)c4cc(O)cc(O)c4-c4cc3ccc4O)[C@H](O)c3ccc(c(Cl)c3)Oc3cc2cc(c3O[C@@H]2O[C@H](CO)[C@@H](O)[C@H](O)[C@H]2O[C@H]2C[C@](C)(N)[C@H](O)[C@H](C)O2)Oc2ccc(cc2Cl)[C@H]1O [VANCOMYCIN] | 180 µg/mL (≈ 124 µM)
N=C(N)c1ccc(OCCCCCOc2ccc(C(=N)N)cc2)cc1 [PENTAMIDINE] | 100 µg/mL (≈ 294 µM)
CC1(C)S[C@@H]2[C@H](NC(=O)Cc3ccccc3)C(=O)N2[C@H]1C(=O)O [PENICILLIN G] | 20 µg/mL (≈ 59.8 µM)
NC[C@H]1O[C@H](O[C@H]2[C@H](O)[C@@H](O[C@H]3O[C@H](CO)[C@@H](O)[C@H](N)[C@H]3O)[C@H](N)C[C@@H]2N)[C@H](O)[C@@H](O)[C@@H]1O [KANAMYCIN] | 14 µg/mL (≈ 28.9 µM)
CC(=O)O[C@H]1C[C@@]2(C)[C@@H](C[C@@H](O)[C@H]3[C@@]4(C)CC[C@@H](O)[C@@H](C)[C@@H]4CC[C@@]32C)/C1=C(\CCC=C(C)C)C(=O)O [FUSIDIC ACID] | 800 µg/mL (≈ 1550 µM)
C/C(=C\C(=O)OCCCCCCCCC(=O)O)C[C@@H]1OC[C@H](C[C@@H]2O[C@H]2[C@@H](C)[C@H](C)O)[C@@H](O)[C@H]1O [MUPIROCIN] | 66 µg/mL (≈ 132 µM)
CN(C)[C@@H]1C(O)=C(C(N)=O)C(=O)[C@@]2(O)C(O)=C3C(=O)c4c(O)cccc4[C@@](C)(O)[C@H]3C[C@@H]12 [TETRACYCLINE] | 18 µg/mL (≈ 40.5 µM)
COc1cc(Cc2cnc(N)nc2N)cc(OC)c1OC [TRIMETHOPRIM] | 0.35 µg/mL (≈ 1.21 µM)
Cc1onc(-c2ccccc2)c1C(=O)N[C@@H]1C(=O)N2[C@@H]1SC(C)(C)[C@@H]2C(=O)O [OXACILLIN] | 190 µg/mL (≈ 473 µM)

Source: ChEMBL document CHEMBL4049433, “Prediction of Antibiotic Interactions Using Descriptors Derived from Molecular Structure” (2017)
